Assay results from US9943528B2 (MAPREG, priority 2016, dated 2018).

Assays:
[1] = molecular target: T1, human progesterone receptor (PR) (Homo sapiens, UniProt P06401); assay: Test of progesterone receptor agonist activity (MMTV-luciferase transactivation in transfected HEK293T cells); assay type: cell-based; settings: 24 hours, increasing amounts, FIG. 1
T1 construct: expressed in transfected cells; host or cells: HEK293T
T1 sequence (P06401 1-933): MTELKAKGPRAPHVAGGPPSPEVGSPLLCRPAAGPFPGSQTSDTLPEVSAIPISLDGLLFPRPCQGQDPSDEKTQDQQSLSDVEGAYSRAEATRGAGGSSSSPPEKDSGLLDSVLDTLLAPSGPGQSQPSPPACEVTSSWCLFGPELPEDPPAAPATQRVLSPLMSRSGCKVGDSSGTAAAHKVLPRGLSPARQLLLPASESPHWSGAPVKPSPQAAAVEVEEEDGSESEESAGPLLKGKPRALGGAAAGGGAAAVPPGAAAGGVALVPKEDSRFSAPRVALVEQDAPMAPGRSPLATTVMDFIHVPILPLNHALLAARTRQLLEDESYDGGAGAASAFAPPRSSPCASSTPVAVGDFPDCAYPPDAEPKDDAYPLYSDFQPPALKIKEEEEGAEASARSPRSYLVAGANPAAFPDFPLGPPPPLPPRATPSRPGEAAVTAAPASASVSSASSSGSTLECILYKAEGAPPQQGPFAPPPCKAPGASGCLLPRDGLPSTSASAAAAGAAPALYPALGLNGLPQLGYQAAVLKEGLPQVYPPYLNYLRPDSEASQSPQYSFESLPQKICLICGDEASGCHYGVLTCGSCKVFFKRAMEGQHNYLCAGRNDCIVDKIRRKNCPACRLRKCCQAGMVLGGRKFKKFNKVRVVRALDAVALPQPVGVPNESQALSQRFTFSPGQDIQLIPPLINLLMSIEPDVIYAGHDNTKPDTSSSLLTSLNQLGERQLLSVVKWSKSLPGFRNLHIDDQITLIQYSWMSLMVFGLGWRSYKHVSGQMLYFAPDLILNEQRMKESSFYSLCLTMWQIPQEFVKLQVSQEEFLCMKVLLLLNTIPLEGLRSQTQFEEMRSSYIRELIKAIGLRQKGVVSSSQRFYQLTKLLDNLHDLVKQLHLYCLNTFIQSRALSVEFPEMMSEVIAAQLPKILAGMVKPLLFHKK
Protocol: (§1) The main experimental setting used is the following: HEK293T cells were transiently transfected, using calcium phosphate precipitation technology, with expression vectors pSG5hPR (which permits expression of human progesterone receptor (PR)), pFC31-luc (contains the luciferase gene under the control of the MMTV promoter, which is in turn activated by binding of a progestin to progesterone receptor) and pcbetagal (which permits expression of betagalactosidase), and cultured during 24 hours with increasing amounts of various compositions:
Test of Progesterone Receptor Agonist Activity: Transfected Cells were Cultured with Increasing Amounts of Progesterone or 3-Methoxy-Pregnenolone

[2] = molecular target: T1, human progesterone receptor (PR); assay: Test of progesterone receptor antagonist activity (MMTV-luciferase transactivation with progesterone 1 nM); assay type: cell-based; settings: HEK293T cells, progesterone 1 nM plus increasing amounts; FIG. 2
Protocol: as §1
Test of progesterone receptor […] activity: transfected cells were cultured with progesterone (1 nM) and increasing amounts of RU486 (a well-known progesterone receptor antagonist) or 3-methoxy-pregnenolone.
With this setting, a compound with progesterone receptor antagonist activity competes with progesterone for the occupation of progesterone receptor and results in a progressive loss of transactivation activity when the amount of this compound is increased compared to progesterone.

[3] = tested on: 80 different CNS neurotransmitters receptors; assay: Screen for in vitro affinity to 80 different CNS neurotransmitters receptors; settings: 80 CNS neurotransmitters receptors, validated binding assays
Source text: MAP4343 has been screened for in vitro affinity to 80 different CNS neurotransmitters receptors using various validated binding assays.

## CO[C@H]1CC[C@@]2(C)C(=CC[C@H]3[C@@H]4CC[C@H](C(C)=O)[C@@]4(C)CC[C@@H]32)C1 [MAP4343, 3β-methoxy-pregna-5-ene-20-one]
[1]
  progesterone receptor agonist activity (transactivation, expression of luciferase): does not have progesterone receptor agonist activity
[2]
  progesterone receptor antagonist activity (loss of transactivation): weak progesterone receptor antagonist
[3]
  in vitro affinity for the tested receptors: no significant affinity for any tested receptor
